PMC12624434 (ACS Pharmacology & Translational Science, 2025)
“And” between values parts separate entries of the source, which are not always exact repeats. Equal values may be shown once. Read-outs that look alike come from different tables or passages of the source.

Key:
[1] = molecular target: T1, NRP1-a1,b1 (Homo sapiens, UniProt O14786); test: bt-VEGFA cell-free competition binding assay (plate-based)
T1 sequence (O14786 273-427 limits assumed): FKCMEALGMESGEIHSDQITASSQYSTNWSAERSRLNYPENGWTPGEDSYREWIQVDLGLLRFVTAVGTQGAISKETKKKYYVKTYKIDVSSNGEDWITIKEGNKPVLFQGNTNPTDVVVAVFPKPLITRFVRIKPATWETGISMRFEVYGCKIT
Procedure: The assay was conducted as previously described. Briefly, the 96-well plates were precoated with NRP1 protein at 3 μg/mL overnight at 4 °C. On the following day, the plates were treated with blocking buffer (PBS containing 1%1% BSA) and washed three times with wash buffer (PBS containing 0.1% Tween-20). The various concentrations of compounds diluted in PBS containing 1%1% DMSO were added, followed by addition of 0.25 nM of bt-VEGFA165. After 2 h of incubation at room temperature, the plates were washed three times with wash buffer. The bound bt-VEGFA165 to NRP1 was detected by streptavidin– horseradish peroxidase conjugates and the enzyme substrate, and measured using a Tecan Genius plate reader at 450 nm with a reference wavelength at 595 nm. Nonspecific binding was determined in the absence of NRP1-coated wells of the plates.

[2] = Pharmacokinetics in mice, 2 mg/kg iv; type: in vivo; settings: female, BALB/c, mouse, plasma
Procedure: To test compound drug-like properties, selected compounds with low IC50 were further evaluated for their pharmacokinetic (PK) profile. 6–8 week-old BABL/c female mice were used. Two mg/kg of compounds was formulated in 7.5% DMSO and 92.5% PBS solution and intravenously dosed into the tail vein as a bolus. Blood samples were collected by cardiac puncture at 5, 15, 30, 60, 180, and 240 min post dosing. Plasma samples were prepared by centrifugation at 7000 rpm for 5 min, and supernatants were collected, immediately snap-frozen on dry ice and stored at −20 °C. Samples were analyzed by liquid chromatography-tandem mass spectrometry using electrospray ionization and data was analyzed by WinNonlin software.

[3] = test system: T180/Y182 phosphorylated p38 (P-p38) in retinal endothelium; test: VEGFA-induced p38 phosphorylation in ex vivo mouse retina (immunostaining); type: cell-based
Procedure: Retinae from C57Bl/6J mice were fixed in 4% formaldehyde in PBS for 1 h and washed three times with PBS. After 1 h in blocking buffer (3% Triton X-100, 1%1% Tween and 0.5% BSA in 2× PBS), retinae were immunostained by incubation with rabbit anti-P-p38 MAPK (Thr180/Tyr182) antibody (Cell Signaling) and biotin-conjugated Isolectin B4 (IB4, Merck) overnight at 4 °C, followed by Alexa Fluor 555–conjugated goat antirabbit antibodies (Invitrogen) and Alexa Fluor 488-conjugated streptavidin (Invitrogen) respectively for 1 h at rt. Images were acquired with a Zeiss Axioskop 2 microscope, using a ph3 Plan-Apochromat 63×/1.40 oil objective, Hamamatsu camera and the HCImage software. Each image was acquired as an RGB color image and then processed with ImageJ software version 1.52a (NIH Bethesda). Channels were split to separate the IB4 staining (green channel) from the P-p38 staining (red channel). The threshold function was used on the IB4 image to determine the area of the vessels and to generate a mask that was restored in the red channel image to measure the area of the vessels positive to P-p38 staining. The P-p38 staining area was normalized against the area stained with IB4. Three retinae from three different mice per condition were used for analysis. One-way ANOVA was used to compare the different treatments.

[4] = test system: vascular permeability of perfused mouse retina blood vessels; test: Ex vivo retina permeability assay (sulforhodamine B extravasation); type: cell-based
From the text: C57Bl/6J mice were culled through CO2 overdose before proceeding with the cannulation of the common carotid arteries and perfusion of the vasculature, as previously described. Each eye was subsequently removed and enucleated. The retina was isolated with the attached sclera, flattened onto a silicone base (SYLGARD 184, Merck), and held in position by a metal ring and pins. Retinal explants were visualized with an Olympus 10× objective on an upright Axiophot fluorescence microscope (Zeiss) and continuously superfused with Krebs solution (124 mM NaCl, 5 mM KCl, 2 mM MgSO4, 22 mM […], 0.125 mM NaH2PO4 and 2 mM CaCl2, pH 7.4) supplemented with 5 mM glucose and 0.1% BSA w/v. A radial vein was injected with 1 mg/mL sulforhodamine B (479 Da; Merck) in Krebs solution using a glass needle to visualize the vasculature under a TRITC filter with an Olympus 40× water immersion objective. For permeability measurements, the fluorescence of a selected microvessel was recorded continuously by time-lapse imaging with a CCD camera (Hamamatsu) and HCImageLive software (Hamamatsu) for at least 30 s to obtain a baseline. VEGFA164 or EG00229 in Krebs solution were then added dropwise onto the retina. […] Time-lapse series were analyzed using ImageJ (NIH Bethesda). […] Permeability measurements from at least three different ex vivo retinal preparations were combined and expressed as mean ± SD. […]

[5] = test system: VEGFA-induced mechanical allodynia in rats; test: VEGFA-induced mechanical allodynia (von Frey), intraplantar injection; type: in vivo, rat; settings: 30 μM coinjected with VEGFA165 10 nM, 50 μL intraplantar; male and female rats
Procedure: The procedure was performed as reported previously. Briefly, rats were gently restrained in a fabric cloth and given an intraplantar injection in the hind-paw containing VEGFA165 (10 nM) and compound (EG00229 or 12h, at 30 or 10 μM) alone or in combination in 50 μL of PBS vehicle (NaCl 137 mM, KCl 2.5 mM, Na2HPO4 10 mM, and KH2PO4 1.8 mM), using a 31G needle.

[6] = molecular target: T2, NRP1 b1 domain (Homo sapiens, UniProt O14786); test: SPR binding to immobilized NRP1 b1 domain (Biacore 4000, CM5 chip); settings: Figure 2B; read-out: KD (kinetics)
T2 construct: with the purified recombinant NRP1 b1 domain immobilized on the chip; inferred from Ni-NTA capture), TEV-cleavable (cleaved yes); made in house; host or cells: E. coli Rosetta (DE3)
T2 sequence (O14786 275-424 limits assumed): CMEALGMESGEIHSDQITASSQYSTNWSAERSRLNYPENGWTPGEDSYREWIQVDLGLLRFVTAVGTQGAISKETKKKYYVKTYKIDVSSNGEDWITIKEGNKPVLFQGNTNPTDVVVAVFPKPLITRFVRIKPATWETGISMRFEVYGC

## N=C(N)NCCC[C@H](NC(=O)c1sccc1NS(=O)(=O)c1cc(NCc2csc(N3CCNCC3)n2)cc2cccnc12)C(=O)O.O=CO [Compound 12h, (2S)-5-Guanidino-2-[[3-[[6-[(2-piperazin-1-ylthiazol-4-yl)-methylamino]-8-quinolyl]-sulfonylamino]-thiophene-2-carbonyl]-amino]-pentanoic Acid, Formic Acid]
[1]; 0.25 nM bt-VEGFA165, mean ± SEM, at least three independent experiments, read-out: Competition analysis bt-VEGFA, cell-free NRP1-a1,b1 IC50
  IC50: 320 ± 40 nM
[1]; plate-based assay, Figure 2D, read-out: IC50, competitive inhibition of bt-VEGFA binding to NRP1
  IC50: 362 nM and < 500 nM
[2]
  AUC(0-inf): 1370 ng·h/mL
  AUC(0-t): 1370 ng·h/mL
  Cmax: 5180 ng/mL
  Tmax: 4.8 min
  Vd: 0.394 L/kg
  half-life: 78 min
[2]; iv, 2 mg/kg
  clearance: 24.5 mL/min/kg
[2]; read-out: AUC
  AUC: 1370 ng·h/mL
[3]; 30 μM alone, 5 min
  p38 phosphorylation when added alone: did not induce p38 phosphorylation
[3]; 30 μM, 15 min prior to VEGFA165 stimulation
  effect on VEGFA-induced p38 phosphorylation in retinal endothelium: prevented VEGFA-induced p38 phosphorylation
[4]; 30 μM, 15 min preincubation of retinal explants
  effect on VEGFA-induced dye extravasation: significantly reduced VEGFA-induced dye extravasation
[4]; compound alone, ex vivo mouse retina
  effect on vascular permeability, alone: had no effect on vascular permeability
[5]
  effect on VEGFA-induced mechanical allodynia (paw withdrawal threshold, AUC 0-6 h): comparable antinociceptive effects in males and females
[6]
  Kd: 346 nM
